For orientation: IC50 means the midpoint of a concentration-inhibition curve.

Experiment [1] has as its system human G12D mutant KRAS-positive pancreatic cancer line AsPC-1. Nature of the experiment: Non-anchorage-dependent cell growth inhibitory effect, spheroid 3D culture (Test Example 3). The class given is cell-based. The settings on record: ASPC1, 144 h, AsPC-1 spheroid 3D culture, 6 days, CellTiter Glo 2.0, read-out: IC50 (non-anchorage-dependent cell growth inhibition). Put shortly: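 AsPC-1 cells grown as spheroids in RPMI 1640 with 10% FBS at 37° C, 5% CO2, then exposed to compounds (10 μM to 0.3 nM final) for 6 days. Viability read by CellTiter Glo 2.0 luminescence. IC50 from Sigmoid-Emax regression with DMSO as 100% and cell-free medium as 0%.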
A general note: In ATP-based viability assays light output follows the ATP content of the culture.

The next experiment has as its target T1, KRAS G12D (Homo sapiens, UniProt P01116, G12D).
T1 construct: host or cells: AsPC-1 (human pancreatic cancer line)
The experiment can be described thus: KRAS degradation activity by Cell ELISA in AsPC-1 cells (Test Example 1). It is filed as cell-based. Particulars: Cell ELISA; for Dmax: ASPC1, overnight treatment, read-out: Dmax (degradation rate at the concentration showing highest degradation); for DC50: overnight treatment, read-out: DC50 (50% degradation concentration of KRAS). Put shortly:
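AsPC-1 cells (2.0×10^4/well) treated overnight with compounds at 10 μM–0.3 nM (10 points), then fixed, permeabilised and stained for KRAS G12D (800 nm) and β-actin (700 nm) by in-cell ELISA. KRAS signal normalised to β-actin, DMSO set as 0% and actin-only staining as 100%; DC50 from Sigmoid-Emax regression up to Dmax.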
On the technique in general: In an ELISA, binding on a coated surface is turned into a signal by an enzyme label.

T1 sequence (P01116 1-188 isoform P01116-2 G12D): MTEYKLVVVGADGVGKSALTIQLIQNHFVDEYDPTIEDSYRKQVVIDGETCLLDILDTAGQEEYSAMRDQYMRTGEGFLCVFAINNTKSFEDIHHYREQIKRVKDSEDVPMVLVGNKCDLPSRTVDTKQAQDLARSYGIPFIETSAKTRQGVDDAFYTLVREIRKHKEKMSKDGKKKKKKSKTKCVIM

For `CO[C@@H](C)COc1cc(N2C[C@@H]3C[C@H]2CN3)c2cc(C3CC3)c(-c3c(C)c(F)cc4[nH]ncc34)c(OCc3ccc(C(=O)N4CCN(Cc5ccc6c(c5)n(C)c(=O)n6C5CCC(=O)NC5=O)C[C@@H]4C)cc3)c2n1` (stereo partly drawn) [Example 29, 3-(5-{[(3S)-4-{4-[({6-cyclopropyl-4-[(1S,4S)-2,5-diazabicyclo[2.2.1]heptan-2-yl]-7-(6-fluoro-5-methyl-1H-indazol-4-yl)-2-[(2S)-2-methoxypropoxy]quinolin-8-yl}oxy)methyl]benzoyl}-3-methylpiperazin-1-yl]methyl}-3-methyl-2-oxo-2,3-dihydro-1H-benzimidazol-1-yl)piperidine-2,6-dione], the IC50 in experiment [1] turned out to be 33 nM. Besides, at KRAS G12D, the Dmax turned out to be 86% and the DC50 was determined as 22 nM.
As to `CO[C@@H](C)COc1cc(O[C@H]2CCNC2)c2cc(C3CC3)c(-c3c(C)c(F)cc4[nH]ncc34)c(OCc3ccc(C(=O)N4CCN(Cc5ccc6c(c5)n(C)c(=O)n6C5CCC(=O)NC5=O)C[C@@H]4C)cc3)c2n1` (stereo partly drawn) [Example 12, 3-[5-({(3S)-4-[4-({[6-cyclopropyl-7-(6-fluoro-5-methyl-1H-indazol-4-yl)-2-[(2S)-2-methoxypropoxy]-4-{[(3S)-pyrrolidin-3-yl]oxy}quinolin-8-yl]oxy}methyl)benzoyl]-3-methylpiperazin-1-yl}methyl)-3-methyl-2-oxo-2,3-dihydro-1H-benzimidazol-1-yl]piperidine-2,6-dione], the IC50 in experiment [1] came out at 41 nM. At KRAS G12D, the Dmax was 82% and the DC50 came to 18 nM.
In the case of `Cc1c(F)cc2[nH]ncc2c1-c1c(C2CC2)cc2c(N3C[C@@H]4C[C@H]3CN4)nc(OC3CCOCC3)nc2c1OCc1ccc(C(=O)N2CCN(Cc3ccc4c(c3)n(C)c(=O)n4C3CCC(=O)NC3=O)C[C@@H]2C)cc1` (stereo partly drawn) [Example 8, 3-(5-{[(3S)-4-{4-[({(7M)-6-cyclopropyl-4-[(1S,4S)-2,5-diazabicyclo[2.2.1]heptan-2-yl]-7-(6-fluoro-5-methyl-1H-indazol-4-yl)-2-[(oxan-4-yl)oxy]quinazolin-8-yl}oxy)methyl]benzoyl}-3-methylpiperazin-1-yl]methyl}-3-methyl-2-oxo-2,3-dihydro-TH-benzimidazol-1-yl)piperidine-2,6-dione], in experiment [1], the IC50 was found to be 27 nM. Also, at KRAS G12D, the Dmax worked out at 86% and the DC50 is 13 nM.
`CO[C@@H](C)COc1nc(N2C[C@@H]3C[C@H]2CN3)c2cc(C3CC3)c(-c3c(C)c(F)cc4[nH]ncc34)c(OCc3ccc(C(=O)N4CCN(Cc5ccc6c(c5)n(C)c(=O)n6C5CCC(=O)NC5=O)C[C@@H]4C)cc3)c2n1` (stereo partly drawn) [Example 10, 3-(5-{[(3S)-4-{4-[({(7M)-6-cyclopropyl-4-[(1S,4S)-2,5-diazabicyclo[2.2.1]heptan-2-yl]-7-(6-fluoro-5-methyl-1H-indazol-4-yl)-2-[(2S)-2-methoxypropoxy]quinazolin-8-yl}oxy)methyl]benzoyl}-3-methylpiperazin-1-yl]methyl}-3-methyl-2-oxo-2,3-dihydro-1H-benzimidazol-1-yl)piperidine-2,6-dione]: the IC50 in experiment [1] was 15 nM. In addition, at KRAS G12D, the Dmax is 86% and the DC50 stood at 8 nM.

For the origin of these results see US20250145631A1, “HETEROCYCLIC COMPOUND ACTING ON G12D MUTANT KRAS PROTEIN” (Astellas Pharma Inc., priority 2022, published 2025).
